The values that follow come from patent US7456172B2, “Succinoylamino benzodiazepines as inhibitors of Aβ protein production” (Bristol-Myers Squibb Pharma Company, priority 1998, dated 2008).

Each structure is given as a SMILES string. Structures can show the parent of a compound that is named as a salt.

Broadly, the melting point is the temperature of the solid-liquid transition. For `C=CC[C@H](C(N)=O)[C@@H](CC(C)C)C(=O)NC1N=C(c2cccc(OC)c2)c2ccccc2N(C)C1=O` (stereo partly shown), the melting point lay within 225 to 230 °C.
In turn, `C=CC[C@H](C(N)=O)[C@@H](CC(C)C)C(=O)NC1N=C(c2ccccc2)c2cc(OC)ccc2N(C)C1=O` (stereo partly shown) showed a melting point of 244 to 255 °C.
For `C=CC[C@H](C(N)=O)[C@@H](CC(C)C)C(=O)NC1N=C(c2cccnc2)c2ccccc2N(C)C1=O` (stereo partly shown), the melting point fell in the range of 251 to 253 °C.
To `CC(C)C[C@@H](C(=O)N[C@H]1N=C(c2ccccc2)c2ccccc2N(C)C1=O)[C@@H](CC1CC1)C(N)=O` (as salt: succinate) belongs 146 to 148 °C; to `C=CC[C@H](C(N)=O)[C@@H](CC(C)C)C(=O)NC1N=C(N2CCOCC2)c2ccccc2N(C)C1=O` (stereo partly drawn) [Example 19, (2R,3S) N1-[1,3-dihydro-1-methyl-2-oxo-5-(N-morpholino)-2H-1,4-benzodiazepin-3-yl]-2-(2-methylpropyl)-3-allyl-butanediamide], 145 to 151 °C; to `C=CC[C@H](C(N)=O)[C@@H](CC(C)C)C(=O)NC1N=C(N(C)C)c2ccccc2N(C)C1=O` (stereo partly drawn) [Example 20, (2R,3S) N1-[1,3-dihydro-1-methyl-2-oxo-5-(dimethylamino)-2H-1,4-benzodiazepin-3-yl]-2-(2-methylpropyl)-3-allyl-butanediamide], 230 to 232 °C.
Regarding `C=CC[C@H](C(N)=O)[C@@H](CC(C)C)C(=O)NC1N=C(N(C)c2ccccc2)c2ccccc2N(C)C1=O` (stereo partly drawn) [Example 21, (2R,3S) N1-[1,3-dihydro-1-methyl-2-oxo-5-(N-methyl-N-phenylamino)-2H-1,4-benzodiazepin-3-yl]-2-(2-methylpropyl)-3-allyl-butanediamide], the melting point lay within 266.6 to 267.8 °C.
In the case of `C=CC[C@H](C(N)=O)[C@@H](CC(C)C)C(=O)NC1N=C(N2CCCCC2)c2ccccc2N(C)C1=O` (stereo partly drawn) [Example 22, (2R,3S) N1-[1,3-dihydro-1-methyl-2-oxo-5-(N-piperidinyl)-2H-1,4-benzodiazepin-3-yl]-2-(2-methylpropyl)-3-allyl-butanediamide], the melting point was in the range of 231 to 238 °C.
On to `C=CC[C@H](C(N)=O)[C@@H](CC(C)C)C(=O)NC1N=C(N2CCCCCC2)c2ccccc2N(C)C1=O` (stereo partly drawn) [Example 23, (2R,3S) N1-[1,3-dihydro-1-methyl-2-oxo-5-(N-homopiperidinyl)-2H-1,4-benzodiazepin-3-yl]-2-(2-methylpropyl)-3-allyl-butanediamide], for which the melting point was 232 to 237 °C.
To `C=CC[C@H](C(N)=O)[C@@H](CC(C)C)C(=O)NC1C(=O)N(C)c2ccccc2-c2ccccc21` (stereo partly drawn) [Example 47, (2R,3S) N1-[6,7-dihydro-5-methyl-6-oxo-5H-dibenz[b,d]azepin-7-yl]-2-(2-methylpropyl)-3-allyl-butanediamide] belongs 137 to 145 °C.
